In this test the target is T1, E1 and His-E2 Ubch10 (Homo sapiens, UniProt P22314).
T1 construct: host or cells: E. coli (His-Ubch10); Sf9 insect cells (E1)
T1 sequence (P22314 1-1058): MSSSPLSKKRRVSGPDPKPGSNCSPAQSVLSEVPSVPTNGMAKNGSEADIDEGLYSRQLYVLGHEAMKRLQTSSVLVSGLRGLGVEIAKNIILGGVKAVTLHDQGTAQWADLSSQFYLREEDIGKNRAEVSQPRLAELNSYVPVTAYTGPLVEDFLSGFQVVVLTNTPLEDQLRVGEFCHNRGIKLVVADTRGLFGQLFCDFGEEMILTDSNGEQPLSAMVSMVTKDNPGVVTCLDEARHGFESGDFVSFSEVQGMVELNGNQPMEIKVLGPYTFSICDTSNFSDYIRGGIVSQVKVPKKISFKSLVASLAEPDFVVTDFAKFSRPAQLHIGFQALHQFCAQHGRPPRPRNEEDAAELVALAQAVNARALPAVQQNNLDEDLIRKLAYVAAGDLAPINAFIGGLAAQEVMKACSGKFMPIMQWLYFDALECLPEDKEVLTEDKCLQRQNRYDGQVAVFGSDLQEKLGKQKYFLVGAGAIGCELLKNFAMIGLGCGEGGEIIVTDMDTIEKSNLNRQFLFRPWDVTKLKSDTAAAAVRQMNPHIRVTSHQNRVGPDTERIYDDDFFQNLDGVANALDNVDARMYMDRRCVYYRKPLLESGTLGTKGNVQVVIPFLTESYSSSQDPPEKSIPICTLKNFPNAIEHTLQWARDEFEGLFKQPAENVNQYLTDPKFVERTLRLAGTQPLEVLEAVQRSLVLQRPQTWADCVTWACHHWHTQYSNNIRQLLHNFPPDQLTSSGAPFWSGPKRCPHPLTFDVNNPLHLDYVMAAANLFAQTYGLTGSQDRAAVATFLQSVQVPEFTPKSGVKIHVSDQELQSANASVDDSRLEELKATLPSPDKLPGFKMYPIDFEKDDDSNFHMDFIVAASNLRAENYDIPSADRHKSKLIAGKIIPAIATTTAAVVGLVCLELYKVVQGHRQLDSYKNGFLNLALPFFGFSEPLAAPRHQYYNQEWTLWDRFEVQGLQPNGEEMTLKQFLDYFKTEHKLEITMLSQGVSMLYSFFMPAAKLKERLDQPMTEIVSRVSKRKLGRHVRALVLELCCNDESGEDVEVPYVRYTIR
As to the kind of experiment: E1 to E2 transfer assay, His-E2 Ubch10, 1.0 μM ATP (low ATP). The class given is biochemical. The settings on record: Table 5, ATP inhibition properties; inhibition measured using IC50 values. The source says:
Biological assays for determining the transfer of ubiquitin from the E1 activating agent to the E2 conjugating agent are described in U.S. patent application Ser. Nos. 09/542,497 and 09/826,312 as well as in the PCT Application WO 01/75145, all of which are incorporated by reference in their entirety. The following assay example illustrates one way by which the ubiquitin ligase inhibitory activity of the compounds of the invention can be assayed. This assay example is not meant to limit in any way the use of the compounds of the invention as ubiquitin ligase inhibitors.
The attachment of a ubiquitin moiety to the E2 conjugating agent was assayed using Flag-ubiquitin that was purified from E. coli, E2 Ubch10 that was purified as a His-Ubch10 from E. coli, and E1 that was purified from Sf9 insect cells (Affiniti Research Products, Exeter, U.K.). The wells of a Nickel-substrate 96-well plate (Pierce Chemical) were blocked with 100 μl of 1% casein/phosphate buffered saline (PBS) for 1 hour at room temperature. The blocked Nickel-substrate plate was then washed three times with 200 μl of PBST (0.1% Tween-20 in PBS). Subsequently, Flag-ubiquitin reaction solution was added to each well so that the final concentration was 62.5 mM Tris pH 7.5, […], 0.75 mM DTT, 1.0 μM ATP (low ATP), and 100 ng Flag-ubiquitin. The final reaction solution volume was fixed to 80 μl with Millipore-filtered water. To this was added the following: a ubiquitin agent inhibitor in 10 μl of DMSO, 10 μl of E1 and His-E2 Ubch10 in 20 mM Tris buffer, pH 7.5, and 5% glycerol so that there was 10 ng/well of E1 and 20 ng/well of His-E2 Ubch10. The reaction was then allowed to proceed at room temperature for 1 hour.
After 1 hour, the wells were washed three times with 200 μl of PBST and the amount of E2-ubiquitin complex was measured. For measuring the amount of the E2-ubiquitin complex, 100 μl of Mouse anti-flag diluted 1:10,000 (Sigma Aldrich Fluka Chemicals, St. Louis, Mo.) and anti-mouse HRP diluted 1:15,000 (Jackson Immunoresearch labs, West Grove, Pa.) in PBST were added to each well and allowed to incubate at room temperature for another hour. The wells were then washed three times with 200 μl of PBST and 100 μl of luminol substrate (⅕ dilution) was added. The luminescence of each well was then measured using a […] to calculate the amount of E2-ubiquitin complex. This procedure was repeated using His-E2 Ubch5C instead of His-E2 Ubch10.
The table below illustrates the inhibitory properties of the pharmaceutical compostions of the invention comprising the compounds listed in the table using the assays described above. Inhibition was measured using IC50 values.
Consider `C=C(C)C(=O)Nc1ccc(C(=O)Nc2nc3ccc(OC)cc3s2)cc1` [Compound 15, 4-methacrylamido-N-(6-methoxybenzo[d]thiazol-2-yl)benzamide], for which the UBC10 result is “++ (++ indicates inhibition at 50 μM or or less)”.

For the molecule `COc1ccc2nc(NC(=O)c3ccc(N)cc3)sc2c1` [Compound 16, 4-amino-N-(6-methoxybenzo[d]thiazol-2-yl)benzamide], the UBC10 entry is “++ (++ indicates inhibition at 50 μM or or less)”. Turning to `COc1ccc2nc(NC(=O)c3ccc(NC(C)=O)cc3)sc2c1` [Compound 17, 4-acetamido-N-(6-methoxybenzo[d]thiazol-2-yl)benzamide], the UBC10 entry is “++ (++ indicates inhibition at 50 μM or or less)”. With `COc1ccc2nc(NC(=O)c3ccc([N+](=O)[O-])cc3Cl)sc2c1` [Compound 18, 2-chloro-N-(6-methoxybenzo[d]thiazol-2-yl)-4-nitrobenzamide] the entry was “−− (−− indicates marginal or no inhibition detected with this assay)”. Take `COc1ccc2nc(NC(=O)c3ccc(NC(=O)C4CCCCC4)cc3)sc2c1` [Compound 19, 4-(cyclohexanecarboxamido)-N-(6-methoxybenzo[d]thiazol-2-yl)benzamide]: the UBC10 entry is on record as “++ (++ indicates inhibition at 50 μM or or less)”. The value for `COc1ccc2nc(NC(=O)c3ccc([N+](=O)[O-])c(C)c3)sc2c1` [Compound 20, N-(6-methoxybenzo[d]thiazol-2-yl)-3-methyl-4-nitrobenzamide] was “−− (−− indicates marginal or no inhibition detected with this assay)”. With `COc1ccc2nc(NC(=O)c3ccc(C)cc3)sc2c1` [Compound 21, N-(6-methoxybenzo[d]thiazol-2-yl)-4-methylbenzamide] the entry was “++ (++ indicates inhibition at 50 μM or or less)”; with `COc1ccc2nc(NC(=O)c3ccc(C)c([N+](=O)[O-])c3)sc2c1` [Compound 23, N-(6-methoxybenzo[d]thiazol-2-yl)-4-methyl-3-nitrobenzamide], “−− (−− indicates marginal or no inhibition detected with this assay)”. In the case of `COc1ccc2nc(NC(=O)c3ccc([N+](=O)[O-])cc3)sc2c1` [Compound 24, N-(6-methoxybenzo[d]thiazol-2-yl)-4-nitrobenzamide], the UBC10 entry is listed as “++ (++ indicates inhibition at 50 μM or or less)”. Turning to `COc1ccc2nc(NC(=O)c3ccc4ccccc4c3)sc2c1` [Compound 25, N-(6-methoxybenzo[d]thiazol-2-yl)-2-naphthamide], the UBC10 result was “−− (−− indicates marginal or no inhibition detected with this assay)”. Consider `COC(=O)c1ccc(C(=O)Nc2nc3ccc(OC)cc3s2)cc1` [Compound 26, methyl 4-((6-methoxybenzo[d]thiazol-2-yl)carbamoyl)benzoate], for which the UBC10 result is reported as “++ (++ indicates inhibition at 50 μM or or less)”. In the case of `COc1ccc2nc(NC(=O)c3ccc(OC(C)=O)cc3)sc2c1` [Compound 27, 4-((6-methoxybenzo[d]thiazol-2-yl)carbamoyl)phenyl acetate], the UBC10 entry is on record as “++ (++ indicates inhibition at 50 μM or or less)”. As to `COc1ccc2nc(NC(=O)c3ccc(C(C)=O)cc3)sc2c1` [Compound 28, 4-acetyl-N-(6-methoxybenzo[d]thiazol-2-yl)benzamide], the UBC10 result is reported as “++ (++ indicates inhibition at 50 μM or or less)”. Turning to `COc1ccc2nc(NC(=O)c3ccc4c(c3)OCCO4)sc2c1` [Compound 29, N-(6-methoxybenzo[d]thiazol-2-yl)-2,3-dihydrobenzo[b][1,4]dioxine-6-carboxamide], the UBC10 result was “++ (++ indicates inhibition at 50 μM or or less)”. Regarding `COc1ccc2nc(NC(=O)c3ccc(Cl)cc3)sc2c1` [Compound 30, 4-chloro-N-(6-methoxybenzo[d]thiazol-2-yl)benzamide], the UBC10 result is on record as “++ (++ indicates inhibition at 50 μM or or less)”. With `COc1ccc2nc(NC(=O)c3ccc(C#N)cc3)sc2c1` [Compound 31, 4-cyano-N-(6-methoxybenzo[d]thiazol-2-yl)benzamide] the entry was “++ (++ indicates inhibition at 50 μM or or less)”.

For the origin of these results see patent publication US20080039629A1, “Benzothniazole compositions and their use as ubiquition ligation inhibitors” (RIGEL PHARMACEUTICALS, INC., priority 2003, published 2008).
